# Values of other authors, collected in patent US7749961B2, “Macrocyclic peptides active against the hepatitis C virus” (Boehringer Ingelheim International GmbH, priority 2004, dated 2010).
# System: hepatitis C virus
# Details: two day clinical trial
smiles,measurement,value
COc1ccc2c(O[C@@H]3C[C@H]4C(=O)N[C@]5(C(=O)O)C[C@H]5/C=C\CCCCC[C@H](NC(=O)OC5CCCC5)C(=O)N4C3)cc(-c3csc(NC(C)C)n3)nc2c1 [BILN 2061],reduction of viral loads in patients infected with the hepatitis C virus,effective in rapidly reducing viral loads
